In patent publication US20230116733A1, “NOVEL INDAZOLE DERIVATIVE AND USE THEREOF” (KOREA RESEARCH INSTITUTE OFCHEMICAL TECHNOLOGY, priority 2019, published 2023):
“Also recorded” adds a separate entry of the source. Structures can show the parent of a compound that is named as a salt.

Legend:
K562 = assay: Assay for anticancer activity, cell viability (Cell Counting Kit-8); type: cell-based; settings: K562 cells, 10 μM compound, 3 days
Description: (§1) Assay for anticancer activity was conducted as follows. Corresponding cancer cells were seeded at a density of 4,000 cells/well into 96-well plates and stabilized for 24 hours. Thereafter, the cells in each well were treated with 10 μM of the each of the compounds for 3 days. Then, cell viability was assayed using Cell Counting Kit-8 from Dojindo.

U937 = assay: as above; type: cell-based; settings: U937 cells, 10 μM compound, 3 days
Description: as §1

TRIB2 [1] = target: T1, TRIB2 (Homo sapiens, UniProt Q92519); assay: TRIB2 kinase activity assay (Eurofins, 33P-ATP filter binding); type: biochemical; set-up: purchased Eurofins; settings: human TRIB2, 15 μM gamma-33P-ATP, 120 minutes at room temperature; read-out: TRIB2 Kimase activity assay IC50
T1 sequence (Q92519 1-343): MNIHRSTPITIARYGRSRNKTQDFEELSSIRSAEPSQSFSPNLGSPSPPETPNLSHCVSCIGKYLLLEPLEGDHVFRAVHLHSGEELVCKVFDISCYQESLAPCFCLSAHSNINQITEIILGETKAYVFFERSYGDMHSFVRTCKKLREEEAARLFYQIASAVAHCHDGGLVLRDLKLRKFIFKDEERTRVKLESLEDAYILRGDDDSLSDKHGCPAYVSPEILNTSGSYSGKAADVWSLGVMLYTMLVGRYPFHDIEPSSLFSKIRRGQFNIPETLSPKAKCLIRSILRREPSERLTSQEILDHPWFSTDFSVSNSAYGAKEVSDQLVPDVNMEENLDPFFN
Description: TRIB2 kinase activity assay was conducted in Eurofins. […] Afterward, the reaction was terminated with 0.5% phosphoric acid.

A549 = assay: Assay for anticancer activity, cell viability (Cell Counting Kit-8); type: cell-based; settings: A549 cells, 10 μM compound, 3 days
Description: as §1

HepG2 = assay: as above; type: cell-based; settings: for Cell viability (% of Con. 10 μM) HepG2: HepG2 cells, 10 μM compound, 3 days
Description: as §1

YAP [2] = assay: Phosphorylation of YAP protein in liver cancer cells (FIG. 1); type: cell-based
YAP [3] = assay: p-YAP level in ovarian cancer cell line A2780 (FIG. 1); type: cell-based
TRIB2 [4] = target: T1, TRIB2; assay: Phosphorylation of TRIB2 protein in liver cancer cells (FIG. 1); type: cell-based; set-up: endogenous in cells; host or cells: HepG2; settings: liver cancer cell line HepG2, dose-dependent

Row | Compound | Cell viability (% of Con. 10 μM) K562 (K562) | Cell viability (% of Con. 10 μM) U937 (U937) | IC50 (TRIB2 [1]) | Cell viability (% of Con. 10 μM) A549 (A549) | inhibition of the growth of liver cancer cell line HepG2 (in words) (HepG2; HepG2) | Cell viability (% of Con. 10 μM) HepG2 (HepG2) | YAP protein degradation (YAP [2]) | inhibitory activity against YAP (in words) (YAP [2]) | phosphorylation of YAP protein (YAP [2]; liver cancer cell line HepG2, dose-dependent, FIG. 1) | level of p-YAP (YAP [3]) | phosphorylation of TRIB2 protein (TRIB2 [4])
1 | O=C(NC1CCNCC1)c1n[nH]c2ccc(-c3cccnc3F)cc12 [Compound 2, 5-(2-fluoropyridin-3-yl)-N-(piperidin-4-yl)-1H-indazole-3-carboxamide] | 16 % of Con. | 12 % of Con. | 10 to 100 nM | – | – | – | – | – | – | – | –
2 | O=C(NC1CCNCC1)c1n[nH]c2ccc(-c3cccnc3)cc12 [Compound 4, N-(piperidin-4-yl)-5-(pyridin-3-yl)-1H-indazole-3-carboxamide] | 41 % of Con. | 50 % of Con. | 10 to 100 nM | – | – | – | – | – | – | – | –
3 | O=C(Nc1ccncc1)c1n[nH]c2ccc(-c3cccnc3F)cc12 [Compound 17, 5-(2-fluoropyridin-3-yl)-N-(pyridin-4-yl)-1H-indazole-3-carboxamide] | – | – | 1 to 10 nM | 17 % of Con. | highly inhibitory | 15 % of Con. | promote YAP protein degradation | inhibitory activity against YAP | decreases the phosphorylation | reduce the level of p-YAP; also recorded: has an inhibitory activity against YAP | decreases the phosphorylation
4 | CCCn1cc(-c2ccc3[nH]nc(C(=O)Nc4ccncc4)c3c2)cn1 [Compound 36, 5-(1-propyl-1H-pyrazol-4-yl)-N-(pyridin-4-yl)-1H-indazole-3-carboxamide] | – | – | 1 to 10 nM | 28 % of Con. | – | 15 % of Con. | – | – | – | – | –
5 | CC(C)(C)OC(=O)N1CCC(NC(=O)c2n[nH]c3ccc(-c4cccnc4F)cc23)CC1 [Compound 1, tert-butyl-4-(5-(2-fluoropyridin-3-yl)-1H-indazole-3-carboxamido)piperidine-1-carboxylate] | 49 % of Con. | 34 % of Con. | 10 to 100 nM | – | – | – | – | – | – | – | –
6 | O=C(Nc1ccncc1)c1n[nH]c2ccc(-c3ccc(N4CCNCC4)cc3)cc12 [Compound 46, 5-(4-(piperazin-1-yl)phenyl)-N-(pyridin-4-yl)-1H-indazole-3-carboxamide hydrochloride] | – | – | 10 to 100 nM | 58 % of Con. | – | 46 % of Con. | – | – | – | – | –
